Data set [1] addresses T1, recombinant BRD4 (BD1 + BD2) (Homo sapiens, UniProt O60885).
T1 construct: employing a recombinant BRD4 (BD1 + BD2) and its corresponding ligand
The data set can be described thus: BRD4 TR-FRET activity assay.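 Further: signal rises with BET ligand binding to the bromodomains, so inhibitors lower it, 120 min incubation at room temperature, 1% DMSO, wells lacking ligand as negative control.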 Format: binding. The note with it: 1 μmol/L; read-out: BRD4 inhibition rate.
Experimental: The BRD4 activity assay utilized TR-FRET technology, employing a recombinant BRD4 (BD1 + BD2) and its corresponding ligand. The TR-FRET signal generated in the assay is proportional to the ligand’s binding to the bromodomains. All reactions contained a final DMSO concentration of 1%. All binding reactions were conducted at room temperature. Each 20 µL reaction mixture, in assay buffer, comprised bromodomains, the BET Ligand, and the specified inhibitor amount. For the negative control, 5 µL of assay buffer replaced the BET ligand. After a 120-min incubation with the ligand, the TR-FRET signal was captured using a Tecan Infinite M1000 plate reader. IC50 values were determined through nonlinear regression with a normalized dose-response fit in Prism GraphPad software.

Molecules are shown by their SMILES.

Regarding `Cc1noc(C)c1-c1cc(Cc2n[nH]c(=O)c3ccccc23)cc(C(N)=O)c1` [DDT01], the inhibition at 1 µM in data set [1] was found to be 15%.

In turn, `CNC(=O)c1cc(Cc2n[nH]c(=O)c3ccccc23)cc(-c2c(C)noc2C)c1` [DDT02] yielded a melting point above 250 °C. For the same compound, the inhibition at 1 µM in data set [1] turned out to be 5%.

For `Cc1noc(C)c1-c1cc(Cc2n[nH]c(=O)c3ccccc23)cc(C(=O)NC2CCCC2)c1` [DDT03], the melting point is above 250 °C. The inhibition at 1 µM in data set [1] was 67%.

On to `Cc1noc(C)c1-c1cc(Cc2n[nH]c(=O)c3ccccc23)cc(C(=O)NC2CCCCC2)c1` [DDT04], for which the melting point was in the range of 178 to 179 °C. Moreover, in data set [1], the inhibition at 1 µM is 56%.

Regarding `Cc1noc(C)c1-c1cc(Cc2n[nH]c(=O)c3ccccc23)cc(C(=O)Nc2ccccc2)c1` [DDT05], the melting point is 192 to 193 °C. The inhibition at 1 µM in data set [1] came out at 35%.

Consider `Cc1noc(C)c1-c1cc(Cc2n[nH]c(=O)c3ccccc23)cc(C(=O)NCc2ccccc2)c1` [DDT06], for which the inhibition at 1 µM in data set [1] was 4%.

In the case of `Cc1noc(C)c1-c1cc(Cc2n[nH]c(=O)c3ccccc23)cc(C(=O)NCc2cccnc2)c1` [DDT07], the melting point is above 250 °C. In data set [1], the inhibition at 1 µM stood at 8%.

Turning to `Cc1noc(C)c1-c1cc(Cc2n[nH]c(=O)c3ccccc23)cc(C(=O)NC2CCOCC2)c1` [DDT08], the inhibition at 1 µM in data set [1] was determined as 11%.

Take `Cc1noc(C)c1-c1cc(Cc2n[nH]c(=O)c3ccccc23)cc(C(=O)NC2CCS(=O)(=O)CC2)c1` [DDT09]: the inhibition at 1 µM in data set [1] turned out to be 4%.

`Cc1noc(C)c1-c1cc(Cc2n[nH]c(=O)c3ccccc23)cc(C(=O)N[C@H]2CC[C@H](O)CC2)c1` [DDT10]: the melting point lay within 199 to 200 °C. The inhibition at 1 µM in data set [1] was found to be 36%.

In the case of `Cc1noc(C)c1-c1cc(Cc2n[nH]c(=O)c3ccccc23)cc(C(=O)N[C@H]2CC[C@@H](O)CC2)c1` [DDT11], the melting point is 214 to 215 °C. In data set [1], the inhibition at 1 µM came to 54%.

On to `Cc1noc(C)c1-c1cc(Cc2n[nH]c(=O)c3ccccc23)cc(C(=O)N2CCC(=O)C2)c1` [DDT12], for which the melting point lay within 241 to 243 °C. In addition, in data set [1], the inhibition at 1 µM was 38%.

For the compound `Cc1noc(C)c1-c1cc(Cc2n[nH]c(=O)c3ccccc23)cc(C(=O)N2CC[C@@H](O)C2)c1` [DDT13], in data set [1], the inhibition at 1 µM came to 71%.

For `Cc1noc(C)c1-c1cc(Cc2n[nH]c(=O)c3ccccc23)cc(C(=O)N2CCNCC2)c1` [DDT15], the inhibition at 1 µM in data set [1] stood at 59%.

With `Cc1noc(C)c1-c1cc(Cc2n[nH]c(=O)c3ccccc23)cc(C(=O)N2CCOCC2)c1` [DDT16], the melting point is 241 to 242 °C. In data set [1], the inhibition at 1 µM amounted to 71%.

`Cc1noc(C)c1-c1cc(Cc2n[nH]c(=O)c3ccccc23)cc(C(=O)N2CCN(C(=O)C3CC3)CC2)c1` [DDT17] registered a melting point of 154 to 155 °C. Also, the inhibition at 1 µM in data set [1] was 16%.

`Cc1noc(C)c1-c1cc(Cc2n[nH]c(=O)c3ccccc23)cc(C(=O)N2CCn3nc(C(F)(F)F)nc3C2)c1` [DDT18] yielded a melting point of 161 to 162 °C. Further, in data set [1], the inhibition at 1 µM is 37%.

Consider `Cc1noc(C)c1-c1cc(Cc2n[nH]c(=O)c3ccccc23)cc(C(=O)N2CCC[C@H](O)C2)c1` [DDT19], for which the melting point lay in the range of 157 to 158 °C. Also, in data set [1], the inhibition at 1 µM stood at 11%.

Take `Cc1noc(C)c1-c1cc(Cc2n[nH]c(=O)c3ccccc23)cc(C(=O)N2CCC[C@@H](O)C2)c1` [DDT20]: in data set [1], the inhibition at 1 µM came out at 4%.

With `Cc1noc(C)c1-c1cc(Cc2n[nH]c(=O)c3ccccc23)cc(C(=O)N2CCC(O)CC2)c1` [DDT21], the melting point was in the range of 176 to 177 °C. In data set [1], the inhibition at 1 µM amounted to 19%.

As to `Cc1noc(C)c1-c1cc(Cc2n[nH]c(=O)c3ccccc23)cc(NC(=O)c2ccccc2)c1` [DDT22], the melting point is 173 to 174 °C. For the same compound, in data set [1], the inhibition at 1 µM turned out to be 64%.

For `Cc1noc(C)c1-c1cc(Cc2n[nH]c(=O)c3ccccc23)cc(NC(=O)c2cccc(C(F)(F)F)c2)c1` [DDT27], the melting point was in the range of 231 to 232 °C. For the same compound, the inhibition at 1 µM in data set [1] stood at 60%.

As to `Cc1noc(C)c1-c1cc(Cc2n[nH]c(=O)c3ccccc23)cc(NC(=O)c2ccc(C(F)(F)F)cc2)c1` [DDT28], the inhibition at 1 µM in data set [1] stood at 54%.

`Cc1noc(C)c1-c1cc(Cc2n[nH]c(=O)c3ccccc23)cc(NC(=O)c2cccc([N+](=O)[O-])c2)c1` [DDT29] came in with a melting point above 250 °C. For the same compound, the inhibition at 1 µM in data set [1] is 65%.

Consider `Cc1noc(C)c1-c1cc(Cc2n[nH]c(=O)c3ccccc23)cc(NC(=O)c2ccc([N+](=O)[O-])cc2)c1` [DDT30], for which, in data set [1], the inhibition at 1 µM came out at 74%.

Regarding `Cc1noc(C)c1-c1cc(Cc2n[nH]c(=O)c3ccccc23)cc(NC(=O)c2cccc(N)c2)c1` [DDT31], the melting point is 236 to 237 °C. Further, in data set [1], the inhibition at 1 µM turned out to be 71%.

For `Cc1noc(C)c1-c1cc(Cc2n[nH]c(=O)c3ccccc23)cc(NC(=O)c2ccc(N)cc2)c1` [DDT32], the melting point was 188 to 189 °C. Moreover, the inhibition at 1 µM in data set [1] came to 54%.

As for `Cc1noc(C)c1-c1cc(Cc2n[nH]c(=O)c3ccccc23)cc(NCc2ccccc2)c1` [DDT33], the melting point was in the range of 230 to 231 °C. The inhibition at 1 µM in data set [1] worked out at 3%.

For the compound `Cc1noc(C)c1-c1cc(Cc2n[nH]c(=O)c3ccccc23)cc(NCc2cccc(F)c2)c1` [DDT34], the inhibition at 1 µM in data set [1] was 3%.

For the compound `Cc1noc(C)c1-c1cc(Cc2n[nH]c(=O)c3ccccc23)cc(NCc2ccc(F)cc2)c1` [DDT35], in data set [1], the inhibition at 1 µM is 3%.

`Cc1noc(C)c1-c1cc(Cc2n[nH]c(=O)c3ccccc23)cc(NCc2cccc([N+](=O)[O-])c2)c1` [DDT36] registered a melting point of 229 to 230 °C. For the same compound, the inhibition at 1 µM in data set [1] amounted to 3%.

For `Cc1noc(C)c1-c1cc(Cc2n[nH]c(=O)c3ccccc23)cc(NCc2ccc([N+](=O)[O-])cc2)c1` [DDT37], the inhibition at 1 µM in data set [1] turned out to be 8%.

On to `Cc1noc(C)c1-c1cc(Cc2n[nH]c(=O)c3ccccc23)cc(NCc2cccc(Cl)c2)c1` [DDT38], for which the melting point is 235 to 236 °C. The inhibition at 1 µM in data set [1] came out at 8%.

With `Cc1noc(C)c1-c1cc(Cc2n[nH]c(=O)c3ccccc23)cc(NCc2ccc(Cl)cc2)c1` [DDT39], the melting point was 200 to 201 °C. For the same compound, the inhibition at 1 µM in data set [1] worked out at 16%.

`Cc1noc(C)c1-c1cc(Cc2n[nH]c(=O)c3ccccc23)cc(NCc2cccc(Br)c2)c1` [DDT40] gave a melting point of 235 to 236 °C. The inhibition at 1 µM in data set [1] was 3%.

`Cc1noc(C)c1-c1cc(Cc2n[nH]c(=O)c3ccccc23)cc(NCc2ccc(Br)cc2)c1` [DDT41] came in with a melting point of 200 to 201 °C. Moreover, in data set [1], the inhibition at 1 µM was 17%.

Turning to `Cc1noc(C)c1-c1cc(Cc2n[nH]c(=O)c3ccccc23)cc(NCc2ccc(Br)cc2F)c1` [DDT42], the inhibition at 1 µM in data set [1] worked out at 3%.

`Cc1noc(C)c1-c1cc(Cc2n[nH]c(=O)c3ccccc23)cc(NCc2ccc(F)c(Br)c2)c1` [DDT43] showed a melting point above 250 °C. For the same compound, the inhibition at 1 µM in data set [1] is 4%.

Regarding `Cc1cccc(CNc2cc(Cc3n[nH]c(=O)c4ccccc34)cc(-c3c(C)noc3C)c2)c1` [DDT44], in data set [1], the inhibition at 1 µM amounted to 3%.

On to `Cc1noc(C)c1-c1cc(Cc2n[nH]c(=O)c3ccccc23)cc(NS(=O)(=O)C(C)C)c1` [DDT54], for which the inhibition at 1 µM in data set [1] was 3%.

On to `Cc1noc(C)c1-c1cc(Cc2n[nH]c(=O)c3ccccc23)cc(NS(=O)(=O)C2CCCCC2)c1` [DDT56], for which, in data set [1], the inhibition at 1 µM was 24%.

With `Cc1noc(C)c1-c1cc(Cc2n[nH]c(=O)c3ccccc23)cc(NS(=O)(=O)c2ccccc2)c1` [DDT57], in data set [1], the inhibition at 1 µM was determined as 36%.

`Cc1cccc(S(=O)(=O)Nc2cc(Cc3n[nH]c(=O)c4ccccc34)cc(-c3c(C)noc3C)c2)c1` [DDT58]: the inhibition at 1 µM in data set [1] turned out to be 71%.

For `Cc1ccc(S(=O)(=O)Nc2cc(Cc3n[nH]c(=O)c4ccccc34)cc(-c3c(C)noc3C)c2)cc1C` [DDT61], the inhibition at 1 µM in data set [1] is 49%.

In the case of `Cc1noc(C)c1-c1cc(Cc2n[nH]c(=O)c3ccccc23)cc(NS(=O)(=O)c2ccc(C(C)C)cc2)c1` [DDT64], the inhibition at 1 µM in data set [1] came out at 69%.

As for `Cc1ccc(S(=O)(=O)Nc2cc(Cc3n[nH]c(=O)c4ccccc34)cc(-c3c(C)noc3C)c2)cn1` [DDT66], in data set [1], the inhibition at 1 µM was found to be 8%.

On to `COc1ccccc1S(=O)(=O)Nc1cc(Cc2n[nH]c(=O)c3ccccc23)cc(-c2c(C)noc2C)c1` [DDT67], for which the inhibition at 1 µM in data set [1] came out at 24%.

In the case of `Cc1noc(C)c1-c1cc(Cc2n[nH]c(=O)c3ccccc23)cc(NS(=O)(=O)c2ccc3c(c2)OCCO3)c1` [DDT71], the inhibition at 1 µM in data set [1] came to 67%.

`CC(=O)Nc1ccc(S(=O)(=O)Nc2cc(Cc3n[nH]c(=O)c4ccccc34)cc(-c3c(C)noc3C)c2)cc1` [DDT73]: in data set [1], the inhibition at 1 µM was determined as 38%.

Take `Cc1noc(C)c1-c1cc(Cc2n[nH]c(=O)c3ccccc23)cc(NS(=O)(=O)Cc2ccccc2)c1` [DDT76]: the inhibition at 1 µM in data set [1] amounted to 50%.

With `Cc1ccc(CS(=O)(=O)Nc2cc(Cc3n[nH]c(=O)c4ccccc34)cc(-c3c(C)noc3C)c2)cc1` [DDT78], in data set [1], the inhibition at 1 µM came to 55%.

Consider `Cc1noc(C)c1-c1cc(Cc2n[nH]c(=O)c3ccccc23)cc(NS(=O)(=O)c2cccc(C(F)(F)F)c2)c1` [DDT81], for which, in data set [1], the inhibition at 1 µM came out at 20%.

`Cc1noc(C)c1-c1cc(Cc2n[nH]c(=O)c3ccccc23)cc(NS(=O)(=O)c2ccc([N+](=O)[O-])cc2)c1` [DDT83]: the inhibition at 1 µM in data set [1] stood at 28%.

With `Cc1noc(C)c1-c1cc(Cc2n[nH]c(=O)c3ccccc23)cc(NS(=O)(=O)c2ccccc2F)c1` [DDT84], the inhibition at 1 µM in data set [1] was determined as 14%.

Regarding `Cc1noc(C)c1-c1cc(Cc2n[nH]c(=O)c3ccccc23)cc(NS(=O)(=O)c2cccc(F)c2)c1` [DDT85], the inhibition at 1 µM in data set [1] stood at 5%.

With `Cc1noc(C)c1-c1cc(Cc2n[nH]c(=O)c3ccccc23)cc(NS(=O)(=O)c2ccc(Cl)cc2Cl)c1` [DDT90], in data set [1], the inhibition at 1 µM was 4%.

Regarding `Cc1noc(C)c1-c1cc(Cc2n[nH]c(=O)c3ccccc23)cc(NS(=O)(=O)c2ccc(Br)cc2)c1` [DDT93], the inhibition at 1 µM in data set [1] came out at 26%.

As usually defined, the inhibition is the change of the read-out against control, counted positive when it falls. In general, melting point refers to the temperature of the solid-liquid transition.

Values taken from publication PMC10720709, “Design, synthesis, and evaluation of 4-(3-(3,5-dimethylisoxazol-4-yl)benzyl)phthalazin-1(2H)-one derivatives: potent BRD4 inhibitors with anti-breast cancer activity” (Frontiers in Pharmacology, 2023).
